{
  "source": "patent US20200306210A1",
  "about": "(ZOGENIX INTERNATIONAL LIMITED, priority 2017, published 2020)",
  "key": {"[1]": {"test_system": "children and young adults with Dravet syndrome", "assay": "Study 1: quality of life (PedsQL, QOLCE)", "type": "in vivo, Human", "settings": "increase indicates improvement", "description": "(§1) In Study 1, subjects were assessed using Clinical Global Impression (CGI), allowing the parent/caregiver and principal investigator to assess improvement, as well as the Quality of Life in Childhood Epilepsy (QOLCE) Scale and the Pediatric Quality of Life Inventory (PedsQL) to measure changes in the quality of life of the subject. Comparisons between treatment groups were made using Wilcoxon rank sum tests.\nIn 2003, Varni and colleagues published a study intended to determine the feasibility, reliability, and validity of the 23-item PEDSQL 4.0 (Pediatric Quality of Life Inventory) Generic Core Scales as a measure of pediatric population health for children and adolescents. The instrument was given to over 10,000 families with children age 2-16 in the state of California. From Varni, et al., parent reported changes in each of the scales and summary scores that could be considered clinically meaningful include a change of >1 SEM or Standard Error of Measurement as a cut point."}, "[2]": {"test_system": "children and young adults with Dravet syndrome", "assay": "Study 1: Clinical Global Impression of Improvement (CGI-I)", "type": "in vivo, Human", "description": "CGI-S and CGI-I ratings were made by clinical investigators and parent/caregivers in a series of phase III trials of fenfluramine. CGI changes were measured in two randomized, controlled trials with results reported herein. Study 1 was conducted as described in Example 1 and CGI ratings were made according to a set schedule of visits made to the clinic. Tables of results and bar graphs of the statistical analyses of CGI ratings for Study 1 at visit twelve (day 113) are provided in FIGS. 1-4. […] Similar results were obtained with investigator CGI-I rating.\nas §1\nThe CGI scale measures the change in the subject's clinical status from a specific point in time, i.e., the Baseline Period (and also referred to as the CGI-S, an initial ranking of severity). The CGI rating scale permits a global evaluation of the subject's improvement over time."}},
  "note": "Counter-ions that a name gives are not always drawn.",
  "data": [
    {"smiles": "CCNC(C)Cc1cccc(C(F)(F)F)c1", "note": "(stereo not drawn) [ZX008, fenfluramine hydrochloride]", "values": [
      {"measurement": "Pediatric Quality of Life Inventory (Peds QL) Total Score, change from baseline, mean ± SD", "setting": "[1]; 0.2 mg/kg/day", "value": "6.8 ± 11.3"},
      {"measurement": "Pediatric Quality of Life Inventory (Peds QL) Total Score, change from baseline, mean ± SD", "setting": "[1]; 0.8 mg/kg/day", "value": "5.9 ± 15.1"},
      {"measurement": "CGI-I Investigator rating 'very much improved' or 'much improved', %", "setting": "[2]; 0.2 mg/kg/day, n = 39", "value": "(41.0%)"},
      {"measurement": "CGI-I Parent/caregiver rating 'very much improved' or 'much improved', %", "setting": "[2]; 0.2 mg/kg/day, n = 39", "value": "(41.0%)"},
      {"measurement": "CGI-I Investigator rating 'very much improved' or 'much improved', %", "setting": "[2]; 0.8 mg/kg/day, n = 40", "value": "(55.0%)"},
      {"measurement": "CGI-I Parent/caregiver rating 'very much improved' or 'much improved', %", "setting": "[2]; 0.8 mg/kg/day, n = 40", "value": "(55.0%)"}
    ]}
  ]
}
